Reference: publication PMC5059567 (International Journal of Endocrinology, 2016)

What was measured:
ATC = ATC patients; cited from earlier work
[1] = Pharmacokinetics of TAX in plasma (noncompartmental, HPLC-UV); type: in vivo, human
Method: Blood samples were centrifuged immediately for 10 min at 1,000 ×g at room temperature and the resulting plasma was frozen and stored at −80°C until analysis.
Briefly, a volume of 200 μL of acetonitrile, 300 μL of deionized water, and 5 mL of tertbutylmethylether was added to 100 μL of plasma samples in borosilicate glass tubes. The mixture was vortexed for 30 sec and centrifuged at 2,500 ×g for 15 min. Upon centrifugation, 3 mL of the organic layer was transferred to a clean glass tube and evaporated to dryness under nitrogen. The residue was then reconstituted with 200 μL of 60% acetonitrile in deionized water and mixed on a vortex mixer for 90 sec; then 100 μL of the reconstituted sample was injected into the HPLC system equipped with a Symmetry C18 column (250 × 4.6 mm i.d., particle size 5 μm) and a Symmetry C18 guard column supplied by Waters (Vimodrone, Milan, Italy). Chromatographic analysis was performed at room temperature (20 ± 2°C) by isocratic elution with a mobile phase consisting in a mixture of acetonitrile—0.1% phosphoric acid in deionized water (60 : 40, v/v) (Milli-Q Plus System, Millipore, Milford, MA, USA) at a flow-rate of 1.0 mL/min.
The Mann–Whitney nonparametric test was used to compare pharmacokinetic values of the two different groups of patients; statistical evaluation was performed using Instat 3.05 software (Graphpad, San Diego, USA).

ATC cell lines = settings: combination with TAX; cited from earlier work
P-gp = settings: preclinical in vitro and in vivo experiments; cited from earlier work
CYP3A4 = settings: preclinical in vitro; read-out: Ki (CYP3A4 inhibition); cited from earlier work
Serum levels of VPA = type: in vivo, human; settings: oral 1,000 mg valproate daily, after two weeks of treatment; range 50–72
Method: Drug measurement was performed using the Dimension Vista System (Siemens, Healthcare, Erlangen, Germany). The therapeutic range was […].

patients affected by ATC [2] = assay: Randomized phase II/III trial: overall survival and progression-free survival; type: in vivo, human; settings: TAX 80 mg/m^2 weekly i.v. with or without VPA 1,000 mg/day p.o.
Method: The diagnosis was obtained by cytological examination of specimens following fine-needle aspiration and was confirmed by histologic examination in all patients who underwent surgery. Examination was performed by two different pathologists with proven experience in thyroid cancer. Inclusion criteria were (a) patients with radiologically or clinically confirmed disease progression during or after multimodal therapy (surgery, if performed, first-line systemic chemotherapy with doxorubicin and cisplatin, and external beam radiation (EBR)); (b) patients not eligible for surgery or EBR because of tumor local invasion or severe comorbidities. […] Patients or their legal representatives needed to be able to read, understand, and provide written informed consent to participate in the trial, according to the Declaration of Helsinki.
In the absence of disease progression, patients of both groups were treated up to 18 chemotherapy cycles. Primary outcomes were (1) overall survival and (2) disease progression, evaluated in terms of progression-free survival (PFS). The extent of thyroid neoplasia and secondary lesions were assessed at the beginning of treatment by computer tomography (CT) scans of head, neck, chest, and abdomen. Local recurrence or lymph node metastases were evaluated also by high definition neck ultrasonography (US). […]

patients affected by ATC [3] = assay: Safety/toxicity in the trial (Common Toxicity Criteria, serum biochemistry); type: in vivo, human; settings: ATC patients enrolled in the study
Method: Hemogram, serum biochemistry, and electrolyte levels were measured before each chemotherapy cycle and when clinically indicated; toxicity was evaluated according to the Common Toxicity Criteria (CTC). […] In the presence of Grade 4 toxicity or in case of severe allergic reaction, treatment was definitively stopped.

[4] = human, intravenous, 80 mg/m^2, plasma, first chemotherapy cycle, 10 patients per group

Cc1ccc(Nc2nccc(N(C)c3ccc4c(C)n(C)nc4c3)n2)cc1S(N)(=O)=O [pazopanib]
median survival reported in clinical trials (ATC): 111 days

CCCC(CCC)C(=O)O [VPA, valproic acid]
VPA dose at which enhancement of TAX cytostatic and cytotoxic activity was reached (ATC cell lines): 0.7 mM
P-gp expression (P-gp): induce the overexpression
valproate blood levels (Serum levels of VPA): 67 µg/mL

CC(=O)O[C@H]1C(=O)[C@@]2(C)[C@H]([C@H](OC(=O)c3ccccc3)[C@]3(O)C[C@H](OC(=O)[C@H](O)[C@@H](NC(=O)c4ccccc4)c4ccccc4)C(C)=C1C3(C)C)[C@]1(OC(C)=O)CO[C@@H]1C[C@@H]2O [TAX, paclitaxel]
Cmax [1, 4]: 1160 ng/mL
Vd [1, 4]: 52.1 L
clearance [1, 4]: 664 mL/min
half-life [1, 4]: 2.03 h
k el [1, 4]: 9.44e-05 s⁻¹
Median survival (patients affected by ATC [2]; Kaplan-Meier from enrollment, P = 0.9): 148 days
Median time to progression (patients affected by ATC [2]; P = 0.6): 51 days
severe adverse effect (patients affected by ATC [3]): No severe adverse effect

COc1ccc(C[C@@H](O)c2cc(OC)c(OC)c(OC)c2)cc1O [combretastatin]
median survival reported in clinical trials (ATC): 5.2 months

CNC(=O)c1cc(Oc2ccc(NC(=O)Nc3ccc(Cl)c(C(F)(F)F)c3)cc2)ccn1 [sorafenib]
median survival reported in clinical trials (ATC): 3.9 months
